{"source": "paper PMC4501006", "about": "“Preliminary Characterization and In Vivo Studies of Structurally Identical ^18F- and ^125I-Labeled Benzyloxybenzenes for PET/SPECT Imaging of β-Amyloid Plaques” (Scientific Reports, 2015)", "key": {"[1]": {"assay": "Partition coefficient determination (log D)", "type": "physicochemical", "protocol": "An ideal Aβ imaging probe would combine a high binding affinity to Aβ plaques and excellent pharmacokinetics with high initial brain uptake and rapid washout from normal brain regions. Thus, the partition coefficients of these four radiolabeled ligands were determined to estimate their ability to penetrate the BBB."}, "[2]": {"assay": "In vivo biodistribution in normal ICR mice", "conditions": "i.v.", "protocol": "Histograms of brain and intestine uptake were presented in Fig. 6 for comparison, while detailed data concerning the in vivo biodistribution in normal ICR mice were collected in Table S3 in Supplementary information. […] [^125I]7a and [^125I]12a were rapidly cleared from the normal brain, with only small amounts of radioactivity remaining at 60 min post-injection (0.55% ID/g for [^125I]7a and 0.37% ID/g for [^125I]12a). […] In addition, no significant deiodination was observed (less than 0.5% ID in the thyroid at 60 min).\nAs the specific activity of ^18F-labeled ligands (about 60 GBq/μmol) was slightly lower than that of corresponding no-carrier-added ^125I-labeled ligands (81 GBq/μmol), the impact of specific activity on pharmacokinetics was studied. In vivo biodistribution of radioactivity after injection of carrier-added [^125I]7a with equal specific activity to corresponding [^18F]7a (60 GBq/μmol) was conducted in normal ICR mice through the same procedure.\nA structural model of an Aβ fiber (PDB ID: 2LMO) derived from solid state NMR was downloaded from the RCSB Protein Data Bank (www.rcsb.org/pdb). Geometric optimization was performed using Gaussian 09 at the B3LYP/6–31 G and 3-21G levels in the water phase. Molecular docking was performed using AutoDock4.0, and the docking results were graphed with VMD 1.9.1 software. SYBYL-X 1.1 software was used to predict the binding affinities with previously constructed 3D-QSAR models. All reagents for chemical synthesis were used as purchased without further purification. [^125I]NaI was purchased from PerkinElmer and ^18F^– was kindly provided by the Chinese PLA General Hospital. ^1H and ^13C NMR spectra were recorded on a Bruker Avance III NMR spectrometer (400 MHz for ^1H; 101 MHz for ^13C) in CDCl3 or DMSO-d6 solutions at room temperature. Mass spectra were acquired with a GCT CA127 Micronass UK instrument. X-ray crystallographic data of compound 12a were collected on a Bruker Smart APEX II diffractometer (Bruker Co., Germany) and deposited at the Cambridge Crystallographic Data Centre as supplementary publication (no. CCDC 1063679). HPLC analysis was performed on a Shimadzu SCL-20 AVP equipped with a Bioscan Flow Count 3200 NaI/PMT γ-radiation scintillation detector and a SPD-20A UV detector, λ = 254 nm. A Venusil MP C18 reverse phase column (Agela Technologies, 5 μm, 4.6 × 250 mm) was used for separations and purity determinations with a binary gradient system (acetonitrile: water = 80%: 20%) at a 1.0 mL/min flow rate. Fluorescent observation was performed on the Axio Observer Z1 inverted fluorescence microscope (Zeiss, Germany) equipped with a DAPI filter set (excitation, 405 nm). Post-mortem brain sections from an autopsy-confirmed AD subject and a control subject were acquired from the Chinese Brain Bank. Transgenic mice (APPswe/PSEN1, male) and wild-type mice (C57BL6, male) were purchased from the Institute of Laboratory Animal Science, Chinese Academy of Medical Sciences. Normal ICR mice (20–22 g, male) were used for in vivo biodistribution, dynamic PET/CT and SPECT/CT scans, and biostability experiments. All experiments on mice were performed in accordance with the guidelines approved by the animal care committee of Beijing Normal University and Xiamen University."}}, "data": [{"smiles": "[18F]CCOc1ccc(OCc2ccc(I)cc2)cc1", "note": "[[^18F]7a]", "values": [{"measurement": "logD", "setting": "[1]", "value": "3.88 ± 0.17"}, {"measurement": "brain2 min/brain60 min ratio", "setting": "[2]", "value": 1.8}, {"measurement": "Biodistribution of radioactivity, blood", "setting": "[2]; 2 min", "value": "5.99 ± 0.16", "unit": "% injected dose per gram"}, {"measurement": "Biodistribution of radioactivity, bone", "setting": "[2]; 2 min", "value": "2.53 ± 0.43", "unit": "% injected dose per gram"}, {"measurement": "Biodistribution of radioactivity, brain", "setting": "[2]; 2 min", "value": "> 5", "unit": "% injected dose per gram"}, {"measurement": "Biodistribution of radioactivity, heart", "setting": "[2]; 2 min", "value": "9.32 ± 0.27", "unit": "% injected dose per gram"}, {"measurement": "Biodistribution of radioactivity, intestine", "setting": "[2]; 2 min", "value": "6.38 ± 1.04", "unit": "% injected dose per organ"}, {"measurement": "Biodistribution of radioactivity, kidney", "setting": "[2]; 2 min", "value": "12.70 ± 0.69", "unit": "% injected dose per gram"}, {"measurement": "Biodistribution of radioactivity, liver", "setting": "[2]; 2 min", "value": "17.83 ± 1.41", "unit": "% injected dose per gram"}, {"measurement": "Biodistribution of radioactivity, lung", "setting": "[2]; 2 min", "value": "9.34 ± 0.45", "unit": "% injected dose per gram"}, {"measurement": "Biodistribution of radioactivity, muscle", "setting": "[2]; 2 min", "value": "5.03 ± 0.63", "unit": "% injected dose per gram"}, {"measurement": "Biodistribution of radioactivity, pancreas", "setting": "[2]; 2 min", "value": "8.18 ± 0.79", "unit": "% injected dose per gram"}, {"measurement": "Biodistribution of radioactivity, spleen", "setting": "[2]; 2 min", "value": "5.92 ± 1.30", "unit": "% injected dose per gram"}, {"measurement": "Biodistribution of radioactivity, stomach", "setting": "[2]; 2 min", "value": "1.55 ± 0.11", "unit": "% injected dose per organ"}, {"measurement": "Biodistribution of radioactivity, brain", "setting": "[2]; 2 min, listed as [18F]7a", "value": "6.14 ± 0.52", "unit": "% injected dose per gram"}, {"measurement": "Biodistribution of radioactivity, blood", "setting": "[2]; 10 min", "value": "4.29 ± 0.14", "unit": "% injected dose per gram"}, {"measurement": "Biodistribution of radioactivity, bone", "setting": "[2]; 10 min", "value": "1.55 ± 0.50", "unit": "% injected dose per gram"}, {"measurement": "Biodistribution of radioactivity, brain", "setting": "[2]; 10 min", "value": "4.78 ± 0.11", "unit": "% injected dose per gram"}, {"measurement": "Biodistribution of radioactivity, heart", "setting": "[2]; 10 min", "value": "4.03 ± 0.34", "unit": "% injected dose per gram"}, {"measurement": "Biodistribution of radioactivity, intestine", "setting": "[2]; 10 min", "value": "5.38 ± 0.33", "unit": "% injected dose per organ"}, {"measurement": "Biodistribution of radioactivity, kidney", "setting": "[2]; 10 min", "value": "7.69 ± 1.15", "unit": "% injected dose per gram"}, {"measurement": "Biodistribution of radioactivity, liver", "setting": "[2]; 10 min", "value": "6.07 ± 0.27", "unit": "% injected dose per gram"}, {"measurement": "Biodistribution of radioactivity, lung", "setting": "[2]; 10 min", "value": "4.63 ± 0.35", "unit": "% injected dose per gram"}, {"measurement": "Biodistribution of radioactivity, muscle", "setting": "[2]; 10 min", "value": "3.46 ± 0.19", "unit": "% injected dose per gram"}, {"measurement": "Biodistribution of radioactivity, pancreas", "setting": "[2]; 10 min", "value": "3.96 ± 0.15", "unit": "% injected dose per gram"}, {"measurement": "Biodistribution of radioactivity, spleen", "setting": "[2]; 10 min", "value": "3.33 ± 0.20", "unit": "% injected dose per gram"}, {"measurement": "Biodistribution of radioactivity, stomach", "setting": "[2]; 10 min", "value": "1.24 ± 0.13", "unit": "% injected dose per organ"}, {"measurement": "Biodistribution of radioactivity, blood", "setting": "[2]; 30 min", "value": "4.36 ± 0.20", "unit": "% injected dose per gram"}, {"measurement": "Biodistribution of radioactivity, bone", "setting": "[2]; 30 min", "value": "2.70 ± 0.48", "unit": "% injected dose per gram"}, {"measurement": "Biodistribution of radioactivity, brain", "setting": "[2]; 30 min", "value": "3.85 ± 0.24", "unit": "% injected dose per gram"}, {"measurement": "Biodistribution of radioactivity, heart", "setting": "[2]; 30 min", "value": "4.20 ± 0.52", "unit": "% injected dose per gram"}, {"measurement": "Biodistribution of radioactivity, intestine", "setting": "[2]; 30 min", "value": "5.95 ± 0.89", "unit": "% injected dose per organ"}, {"measurement": "Biodistribution of radioactivity, kidney", "setting": "[2]; 30 min", "value": "6.12 ± 0.79", "unit": "% injected dose per gram"}, {"measurement": "Biodistribution of radioactivity, liver", "setting": "[2]; 30 min", "value": "4.31 ± 0.32", "unit": "% injected dose per gram"}, {"measurement": "Biodistribution of radioactivity, lung", "setting": "[2]; 30 min", "value": "4.21 ± 0.18", "unit": "% injected dose per gram"}, {"measurement": "Biodistribution of radioactivity, muscle", "setting": "[2]; 30 min", "value": "3.82 ± 0.40", "unit": "% injected dose per gram"}, {"measurement": "Biodistribution of radioactivity, pancreas", "setting": "[2]; 30 min", "value": "3.62 ± 0.30", "unit": "% injected dose per gram"}, {"measurement": "Biodistribution of radioactivity, spleen", "setting": "[2]; 30 min", "value": "3.38 ± 0.23", "unit": "% injected dose per gram"}, {"measurement": "Biodistribution of radioactivity, stomach", "setting": "[2]; 30 min", "value": "1.82 ± 0.48", "unit": "% injected dose per organ"}, {"measurement": "Biodistribution of radioactivity, blood", "setting": "[2]; 60 min", "value": "4.97 ± 0.12", "unit": "% injected dose per gram"}, {"measurement": "Biodistribution of radioactivity, bone", "setting": "[2]; 60 min", "value": "4.16 ± 0.59", "unit": "% injected dose per gram"}, {"measurement": "Biodistribution of radioactivity, brain", "setting": "[2]; 60 min", "value": 3.48, "unit": "% injected dose per gram"}, {"measurement": "Biodistribution of radioactivity, heart", "setting": "[2]; 60 min", "value": "4.26 ± 0.13", "unit": "% injected dose per gram"}, {"measurement": "Biodistribution of radioactivity, intestine", "setting": "[2]; 60 min", "value": "8.13 ± 1.01", "unit": "% injected dose per organ"}, {"measurement": "Biodistribution of radioactivity, kidney", "setting": "[2]; 60 min", "value": "4.77 ± 0.52", "unit": "% injected dose per gram"}, {"measurement": "Biodistribution of radioactivity, liver", "setting": "[2]; 60 min", "value": "3.84 ± 0.21", "unit": "% injected dose per gram"}, {"measurement": "Biodistribution of radioactivity, lung", "setting": "[2]; 60 min", "value": "4.32 ± 0.17", "unit": "% injected dose per gram"}, {"measurement": "Biodistribution of radioactivity, muscle", "setting": "[2]; 60 min", "value": "4.31 ± 0.38", "unit": "% injected dose per gram"}, {"measurement": "Biodistribution of radioactivity, pancreas", "setting": "[2]; 60 min", "value": "2.89 ± 0.37", "unit": "% injected dose per gram"}, {"measurement": "Biodistribution of radioactivity, spleen", "setting": "[2]; 60 min", "value": "3.28 ± 0.29", "unit": "% injected dose per gram"}, {"measurement": "Biodistribution of radioactivity, stomach", "setting": "[2]; 60 min", "value": "1.58 ± 0.18", "unit": "% injected dose per organ"}, {"measurement": "Biodistribution of radioactivity, brain", "setting": "[2]; 60 min, listed as [18F]7a", "value": "3.48 ± 0.12", "unit": "% injected dose per gram"}]}]}
